# What was measured:
# Type in all cases: cell-based
# A431 cells = experiment: Growth of A431 cells (SRB); settings: Homo sapiens, A-431, 72 h, 2% calf serum, 3 days
# Protocol: The following assay measures growth rates for A43 1 cells.
# 2% calf serum/DMEM+2 mM glutamine, Pen/Strep
# 2. Dilute cells in growth medium to 60,000 cell/mL. Transfer 100 μL of cells to each well in a 96-well flat bottom plate to give 6000 cells/well.
# 1. In a 96-well round bottom plate, add 120 μL of growth medium containing 2×final % DMSO found in highest screening concentration of compound to columns 1 to 11. For example, if the highest concentration is […], ad this is made from a 100 mM stock, 1×DMSO is 0.1%, so 2×DMSO is 0.2%. This plate is used to titrate out the compound, 4 rows per compound.
# 2. In a sterile 15 mL tube, make a 2×solution of the highest screening concentration of compound in growth medium plus 2×DMSO. 1 mL per cell line is needed. The starting concentration of the compound is usually 100 μM but this concentration may vary depending upon the solubility of the compound.
# 3. Transfer 240 μL of the 2×starting compound solution to qudruplicate wells in column 12 of the 96-well round bottom plate. Do 1:2 serial dilutions across the plate from right to left by transferring […] from column 12 to column 11, column 11 to 10 and so on through column 2. […]
# 6. Read plates on Dynatech ELISA Plate REader at 570 nm with reference at 630 nm. […]
# Insulin Receptor = biological target: T1, Insulin Receptor (Homo sapiens, UniProt P06213); experiment: Insulin receptor phosphorylation assay in H25 cells (ELISA); settings: insulin stimulation
# T1 construct: expressed in transfected cells; host or cells: H25 cells (NIH3T3, ATCC No. 1658)
# Protocol: The following materials and reagents were used to measure phophotyrosine levels on the insulin receptor (indicating insulin receptor tyrosine kinase activity):
# 1. The preferred cell line was an NIH3T3 cell line (ATCC No. 1658) which overexpresses Insulin Receptor (H25 cells);
# 2. Resuspend the cells in fresh DMEM+10% FBS+2mM L-Glutamine, and transfer to 96-well tissue culture plate (Corning, 25806-96) at 20,000 cells/well (100 μL/well). The cells are then incubated for 1 day. Following such incubation, 0.01% serum medium (90/μL) replaces the old media and the cells incubate in 5% CO2 and 37° C. overnight.
# 1. Coat the ELISA plate (Corning 25805-96) with Anti-IR Antibody at 0.5 μg/well in 100 μL PBS at least 2 hours.
# C. Assay Procedures 1. The drugs are tested in serum-free condition. 2. Dilute drug stock (in 100% DMSO) 1:10 with DMEM in 96-well poly-propylene plate, and transfer 10 μL/well of this solution to the cells to achieve final drug dilution 1:100, and final DMSO concentration of 1.0%. Incubate the cells in 5% CO2 at 37° C. for 2 hours.
# 4. After drug incubation for two hours, transfer 10 μL/well of 1 μM insulin in PBS to the cells (Final concentration=100 nM), and incubate at 5% CO2 at 37° C. for 10 minutes.
# 5. […]
# The IC50 values measured in the insulin receptor phosphorylation assay for the compound of formula VI are depicted in Table 7: […]
# human FLK-1 = human FLK-1 (Homo sapiens, UniProt P35968); experiment: FLK-1 receptor phosphorylation assay in cells (ELISA); settings: NIH3T3 C7#3 cells, VEGF stimulation
# T1 sequence (P06213 28-1382, species assumed): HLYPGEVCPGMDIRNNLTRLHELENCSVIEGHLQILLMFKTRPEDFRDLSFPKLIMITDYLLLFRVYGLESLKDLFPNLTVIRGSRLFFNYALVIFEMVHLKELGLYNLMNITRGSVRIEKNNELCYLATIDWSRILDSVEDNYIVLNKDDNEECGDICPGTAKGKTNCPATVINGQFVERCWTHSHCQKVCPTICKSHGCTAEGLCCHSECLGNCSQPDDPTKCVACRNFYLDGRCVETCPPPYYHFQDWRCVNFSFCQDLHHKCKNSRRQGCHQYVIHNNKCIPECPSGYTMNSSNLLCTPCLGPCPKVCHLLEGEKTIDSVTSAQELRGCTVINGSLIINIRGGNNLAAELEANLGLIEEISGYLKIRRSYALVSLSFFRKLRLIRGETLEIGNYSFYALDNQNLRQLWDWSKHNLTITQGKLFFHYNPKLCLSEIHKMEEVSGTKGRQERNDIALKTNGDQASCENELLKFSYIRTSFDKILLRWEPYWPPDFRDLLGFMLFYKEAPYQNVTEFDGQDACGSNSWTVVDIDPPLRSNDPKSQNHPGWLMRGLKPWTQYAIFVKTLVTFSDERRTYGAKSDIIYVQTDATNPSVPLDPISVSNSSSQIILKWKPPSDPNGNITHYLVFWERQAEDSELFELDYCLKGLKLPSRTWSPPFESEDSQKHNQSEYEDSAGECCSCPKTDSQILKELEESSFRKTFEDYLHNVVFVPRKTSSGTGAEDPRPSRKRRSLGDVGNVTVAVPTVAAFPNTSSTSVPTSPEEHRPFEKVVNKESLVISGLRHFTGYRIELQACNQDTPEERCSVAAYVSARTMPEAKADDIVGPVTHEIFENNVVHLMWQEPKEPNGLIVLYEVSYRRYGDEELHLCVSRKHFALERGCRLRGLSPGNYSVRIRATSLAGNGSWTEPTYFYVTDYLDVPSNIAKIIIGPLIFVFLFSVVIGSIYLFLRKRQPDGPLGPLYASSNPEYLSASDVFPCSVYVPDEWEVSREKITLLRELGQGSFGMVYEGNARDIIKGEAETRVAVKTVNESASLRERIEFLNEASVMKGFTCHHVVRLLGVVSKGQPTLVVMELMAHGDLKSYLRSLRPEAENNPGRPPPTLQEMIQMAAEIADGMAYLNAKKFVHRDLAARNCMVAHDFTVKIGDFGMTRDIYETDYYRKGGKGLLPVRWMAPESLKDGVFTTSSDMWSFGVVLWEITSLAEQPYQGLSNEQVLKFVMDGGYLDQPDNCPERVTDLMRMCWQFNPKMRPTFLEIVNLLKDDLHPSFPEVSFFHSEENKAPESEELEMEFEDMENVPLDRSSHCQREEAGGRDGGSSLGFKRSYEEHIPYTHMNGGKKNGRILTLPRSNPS
smiles,measurement,setting,value
Cc1cc(/C=C2/C(=O)Nc3ccccc32)c(C)c2c1[nH]c1ccccc12 [VI],IC50,A431 cells,0.712 µM
same,IC50,Insulin Receptor,21.9 µM
same,IC50,human FLK-1,4.84 µM

# Source: patent publication US6514981B1, “Methods of modulating tyrosine protein kinase function with indolinone compounds” (Sugen, Inc., priority 1998, dated 2003)
